Key:
[1] = target: T1, Aβ1–42 (amyloid β peptide, 42 residues) (Homo sapiens, UniProt P05067); experiment: Thioflavin T fluorescence fibrillization assay; format: biochemical
T1 construct: gene APP; wild-type 42-residue peptide Abeta 1-42, cut from amyloid-beta precursor protein (APP770 residues 672-713); lyophilized, chloride salt, purchased from Calbiochem; non-fibrillated at start, aggregating during the assay

[2] = target: T1, Aβ1–42 (amyloid β peptide, 42 residues); experiment: Thioflavin T fluorescence fibrillization assay; format: biochemical; remark: listed apart in the source

T1 sequence (P05067 672-713): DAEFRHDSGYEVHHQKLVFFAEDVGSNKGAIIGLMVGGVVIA

Row | inhibition at 100 µM [1] | IC50 [2] | Structure (SMILES)
1 | ~50% |  | COc1ccc(C2CNC(=O)C2)cc1OC1CCCC1 (stereo not drawn) [compound 14]
2 |  | 34.4 µM | O=C(COc1ccccc1)C1CCCN1 (stereo not drawn) [compound 8]
3 |  | 1.28 µM | CC(C(=O)Nc1ccc(C(C)(C)C)cc1)N1CCCC1 (stereo not drawn) [compound 5]
